Patent publication US10669227B2 (THE RESEARCH FOUNDATION OF STATE UNIVERSITY OF NEW YORK, priority 2009, dated 2020)

Columns and labels:
[1] = molecular target: MMP-2 (72 kDa gelatinase) (Rattus norvegicus (Rat), UniProt P33436); assay: Diabetic rat, plasma gelatinase by gelatin zymography (MMP-2); format: in vivo; conditions: diabetic rats, 100 mg/kg oral once/day, 7 days
MMP-13 (Collagenase-3) = MMP-13 (Collagenase-3) (Homo sapiens (Human), UniProt P45452); assay: MMP-13 inhibition in vitro, octapeptide substrate, HPLC; format: biochemical; conditions: read-out: MMP-13 Maximum Inhibition @100 μM
alveolar bone loss = assay: Diabetic rat, alveolar bone loss, morphometric; format: in vivo; conditions: 500 mg/kg oral, 3 weeks
Description: (§1) At the end of the treatment protocol, the rats were sacrificed, blood samples were collected, and whole skin (except over limbs) and qingiva were dissected (the skin, because of ample quantities of tissue were analyzed for each rat separately; the gingiva, because of the tiny amounts that could be harvested per rat, were pooled for each experimental group, as prescribed previously for tetracycline studies (30). In addition, the jaw bones were collected, defleshed, and bone loss around the teeth analyzed morphometrically as described previously (42, 43).
Alveolar bone loss (the signature pathologic event in inflammatory periodontal disease) was assessed in the defleshed jaws of the compound 1-treated (TX) and untreated rats.

[2] = Type I diabetic rat model, 3-week oral treatment: blood glucose and hemoglobin A1c; format: in vivo; conditions: diabetic rats, 100 and 500 mg/kg oral daily, 3 weeks
Description: as §1

MMP-2 = assay: Diabetic rat, MMP-2 in skin by ELISA; format: in vivo; conditions: both low and high doses, 3 weeks
Description: as §1

NFκB activation = NFκB activation in human monocytes in cell culture; format: cell-based; conditions: Monocyte
[3] = tested on: PC-3 human prostate cancer cells; assay: MMP-9 in conditioned media of PC-3 cells, gelatin zymography and Western blot; format: cell-based; conditions: 10 μM and 20 μM, 48 hr, serum-free
Description: Compound 1 was evaluated in a cell culture model of cancer. […] After the incubation, aliquots of the conditioned media were assayed for MMP-9 (gelatinase B) by either of two techniques, gelatin zymography (in the presence of 2 or 10 mMCa^++) and Western blot (both assays used purified MMP-9, 92 kDa gelatinase, as a standard).

VEGF = VEGF level in LPS-challenged human monocytes, Luminex multiplex; format: cell-based; conditions: 2 μM, FIG. 2
Description: The cytokine levels were measured by Luminex multiplex, a method that allows the simultaneous measurement of different biological markers.

IL-1β = IL-1β (Rattus norvegicus (Rat), UniProt Q63264); assay: Diabetic rat, IL-1β in gingiva extracts by ELISA; format: in vivo; conditions: 3 weeks
Description: as §1

inhibition at 100 µM (MMP-13 (Collagenase-3)): 69%
Reduction of IL-1β in gingiva vs untreated diabetic (IL-1β; higher oral dose (500 mg/kg)): 95%
Reduction of IL-1β in gingiva vs untreated diabetic (IL-1β; lower dose (100 mg/kg)): about 18%
SMILES: COC(=O)C(C(=O)/C=C/c1ccc(O)c(OC)c1)C(=O)/C=C/c1ccc(O)c(OC)c1 [Compound 1, 1,7-Bis(4-hydroxy-3-methoxyphenyl)-4-methoxycarbonylhepta-1E,6E-dien-3,5-dione]
Plasma MMP-2 level [1]: reduced the excessive levels of MMPs to essentially normal levels
Reduction in alveolar bone loss vs untreated groups (alveolar bone loss): less effective
Blood glucose [2]: no significant effect
Hemoglobin A1c level [2]: no significant effect
Reduction of elevated MMP-2 level in skin (MMP-2): 28%
inhibition at 2 µM (NFκB activation; CRP/oxid-LDL Complex): 91%
inhibition at 10 µM (NFκB activation; CRP/oxid-LDL Complex): 100%
inhibition at 2 µM (NFκB activation; Endotoxin (LPS)): 24%
inhibition at 10 µM (NFκB activation; Endotoxin (LPS)): 85%
MMP-9 production and/or activity in conditioned media [3]: inhibited the production and/or activity of MMP-9
VEGF level in LPS-challenged human monocytes, Luminex multiplex (VEGF): potent in reducing
